The text below walks through data of ChEMBL document CHEMBL1146341, “Synthesis and in vivo evaluation of [18F]-4-[5-(4-methylphenyl)-3-(trifluoromethyl)-1H-pyrazol-1-yl]benzenesulfonamide as a PET imaging probe for COX-2 expression” (Bioorg Med Chem, 2007).

The nature of data set [1]: Ratio of drug uptake in skull to cingulate in baboon at 1.2 mCi after 115 mins. The class given is ADME. The conditions noted are these: papio hamadryas, in vivo.
A short description of data set [2]: Drug level in baboon plasma assessed as unmetabolized fractions after 60 mins. The conditions noted are these: papio hamadryas, read-out: Activity. Format: ADME, cell-free.
Data set [3] can be described thus: Ratio of drug uptake in skull to caudate in baboon at 1.2 mCi after 115 mins. The class given is ADME. The conditions noted are these: papio hamadryas, in vivo.
The nature of data set [4]: Ratio of drug uptake in skull to hippocampus in baboon at 1.2 mCi after 115 mins. The class given is ADME, tissue-based. The conditions noted are these: papio hamadryas, in vivo.
The nature of data set [5]: Ratio of drug uptake in skeleton to brain in Sprague-Dawley rat at 0.2 mCi, iv after 112 mins. The conditions noted are these: in vivo. The class given is ADME, organism-based.
A short description of data set [6]: Ratio of drug uptake in skull to putamen in baboon at 1.2 mCi after 115 mins. The class given is ADME. The conditions noted are these: papio hamadryas, in vivo.
The nature of data set [7]: Drug level in baboon plasma assessed as unmetabolized fractions after 30 mins. The conditions noted are these: papio hamadryas, read-out: Activity. The class given is ADME, cell-free.
The nature of data set [8]: Ratio of drug uptake in skull to thalamus in baboon at 1.2 mCi after 115 mins. The class given is ADME, tissue-based. The conditions noted are these: papio hamadryas, in vivo.
The nature of data set [9]: Ratio of drug uptake in skeleton to heart in Sprague-Dawley rat at 0.2 mCi, iv after 112 mins. Format: ADME, organism-based. The conditions noted are these: in vivo.
Data set [10] can be described thus: Ratio of drug uptake in skeleton to cerebellum in Sprague-Dawley rat at 0.2 mCi, iv after 112 mins. Format: ADME, organism-based. The conditions noted are these: in vivo.
Data set [11] in a line: Drug level in baboon plasma assessed as unmetabolized fractions after 12 mins. The class given is ADME, cell-free. The conditions noted are these: papio hamadryas, read-out: Activity.
Data set [12] can be described thus: Drug level in baboon plasma assessed as unmetabolized fractions after 4 mins. Format: ADME, cell-free. The conditions noted are these: papio hamadryas, read-out: Activity.
Data set [13] can be described thus: Drug level in baboon plasma assessed as unmetabolized fractions after 2 mins. The class given is ADME, cell-free. The conditions noted are these: papio hamadryas, read-out: Activity.
The nature of data set [14]: Ratio of drug uptake in skull to cerebellum in baboon at 1.2 mCi after 115 mins. Format: ADME, tissue-based. The conditions noted are these: papio hamadryas, in vivo.

With `Cc1ccc(-c2cc(C(F)(F)[18F])nn2-c2ccc(S(N)(=O)=O)cc2)cc1`, the Ratio in [1] was 1.43; in data set [3], 1.48; in data set [4], 1.41; in [5], 0.45; in [6], 1.46; in [8], 1.6. For the same compound, the results for the Ratio in data set [9], in data set [10] and in data set [14] were 0.7, 0.5 and 1.2, respectively. In data set [2], the remaining at 1 h was determined as 17%. Further, the remaining at 0.5 h in data set [7] was 30.2%. The remaining at 0.2 h in data set [11] stood at 47.5%. Besides, the remaining at 4 min in [12] was determined as 84.9%. The remaining at 2 min in [13] worked out at 93.2%.
